{
  "source": "patent US12384776B2",
  "about": "“Compounds and uses thereof” (Foghorn Therapeutics Inc., priority 2019, dated 2025)",
  "data": [
    {"biological_target": "Nanoluciferase-BRD9 fusion protein (3×FLAG-NLuc-BRD9) in SYO-1 cells (Homo sapiens (Human), UniProt Q9H8M2)", "sequence (Q9H8M2 whole entry, the tested form may be a part)": "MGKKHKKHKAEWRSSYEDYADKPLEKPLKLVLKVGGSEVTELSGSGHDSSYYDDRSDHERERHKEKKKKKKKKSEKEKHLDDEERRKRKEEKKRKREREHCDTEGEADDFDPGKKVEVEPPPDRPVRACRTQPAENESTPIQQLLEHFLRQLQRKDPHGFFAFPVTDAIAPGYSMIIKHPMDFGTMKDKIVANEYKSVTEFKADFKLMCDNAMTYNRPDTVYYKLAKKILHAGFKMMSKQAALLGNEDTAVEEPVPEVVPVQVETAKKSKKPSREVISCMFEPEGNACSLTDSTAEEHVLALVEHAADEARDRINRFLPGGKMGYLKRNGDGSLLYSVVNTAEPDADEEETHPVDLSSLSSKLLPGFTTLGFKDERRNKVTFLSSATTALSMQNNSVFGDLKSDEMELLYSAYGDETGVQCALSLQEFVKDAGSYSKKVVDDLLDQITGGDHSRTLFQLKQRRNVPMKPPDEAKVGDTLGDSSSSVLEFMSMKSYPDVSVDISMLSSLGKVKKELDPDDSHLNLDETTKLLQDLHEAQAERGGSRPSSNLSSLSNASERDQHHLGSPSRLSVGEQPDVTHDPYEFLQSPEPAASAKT", "assay": "SYO1 BRD9 NanoLuc degradation assay", "format": "cell-based", "conditions": "SYO-1 cells expressing 3×FLAG-NLuc-BRD9, 6 hours incubation, top dose 1 μM", "outline": "(§1)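 Degradation read as loss of NLuc signal after 6 h compound exposure (1 μM top final, 3-fold steps, 10 points, duplicates) in SYO-1 cells stably carrying 3×FLAG-NLuc-BRD9. Signal normalised between DMSO-treated cells and cells given 1 μM of a known BRD9 degrader.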", "units": {"IC50": "nM"}, "values": [
      {"smiles": "COc1cc(-c2cn(C)c(=O)c3c2CCN(C(=O)NCC2CC24CCN(CCCCN2CCN(c5ccc6c(c5)C(=O)N(C5CCC(=O)NC5=O)C6=O)CC2)CC4)C3)cc(OC)c1CN(C)C", "note": "(stereo not shown) [Compound D240]", "IC50": "100 to 1000"},
      {"smiles": "CNC(=O)N1CCc2c(-c3cc(OC)c(CN4CC(C(C)N5CCC6(CC5)CN(c5ccc7c(c5)C(=O)N(C5CCC(=O)NC5=O)C7=O)C6)C4)c(OC)c3)cn(C)c(=O)c2C1", "note": "(stereo not shown) [Compound D107]", "IC50": "< 10"},
      {"smiles": "CNC(=O)N1CCc2c(-c3cc(OC)c(CN4CCN(CCC5CCN(c6ccc7c(c6)C(=O)N(C6CCC(=O)NC6=O)C7=O)CC5)C(COC)C4)c(OC)c3)cn(C)c(=O)c2C1", "note": "(stereo not shown) [Compound D103]", "IC50": "< 10"},
      {"smiles": "CNC(=O)N1CCc2c(-c3cc(OC)c(CN4CC(C(=O)N5CC6(CCN(c7ccc8c(c7)C(=O)N(C7CCC(=O)NC7=O)C8=O)C6)C5)C4)c(OC)c3)cn(C)c(=O)c2C1", "note": "(stereo not shown) [Compound D144]", "IC50": "10 to 100"},
      {"smiles": "CNC(=O)N1CCc2c(-c3cc(OC)c(CN4CCC(CCN5CCN(c6cc7c(c(OC)c6)C(=O)N(C6CCC(=O)NC6=O)C7)CC5)CC4)c(OC)c3)cn(C)c(=O)c2C1", "note": "(stereo not shown) [Compound D50]", "IC50": "10 to 100"},
      {"smiles": "CNC(=O)N1CCc2c(c(-c3cc(OC)c(CN(C)CC45CC(C(=O)NCCCCCOc6cccc7c6C(=O)N(C6CCC(=O)NC6=O)C7=O)(C4)C5)c(OC)c3)cn(C)c2=O)C1", "note": "(stereo not shown) [Compound D294]", "IC50": "≥ 1000"},
      {"smiles": "CNC(=O)N1CCc2c(-c3cc(OC)c(CN4CCC(CN5CCC6(CC5)CN(c5ccc7c(c5)C(=O)N(C5CCC(=O)NC5=O)C7=O)C6)CC4)c(OC)c3)cn(C)c(=O)c2C1", "note": "(stereo not shown) [Compound D136]", "IC50": "< 10"},
      {"smiles": "CNC(=O)N1CCc2c(-c3cc(OC)c(CN4CCN(CCN5CCN(c6ccc7c(c6)C(=O)N(C6CCC(=O)NC6=O)C7=O)CC5)CC4)c(OC)c3)cn(C)c(=O)c2C1", "note": "(stereo not shown) [Compound D139]", "IC50": "< 10"},
      {"smiles": "COc1cc(-c2cn(C)c(=O)c3c2CCN(C(=O)NCC2CC4CN(CCOc5ccc6c(c5)C(=O)N(C5CCC(=O)NC5=O)C6=O)CC4C2)C3)cc(OC)c1CN(C)C", "note": "(stereo not shown) [Compound D266]", "IC50": "10 to 100"},
      {"smiles": "COc1cc(-c2cn(C)c(=O)c3c2CCN(C(=O)NCCCN2CCC4CCN(c5ccc6c(c5)C(=O)N(C5CCC(=O)NC5=O)C6=O)C4C2)C3)cc(OC)c1CN(C)C", "note": "(stereo not shown) [Compound D234]", "IC50": "10 to 100"},
      {"smiles": "CNC(=O)N1CCc2c(-c3cc(Cl)c(CN4CCN(CCC5CCN(c6ccc7c(c6)CN(C6CCC(=O)NC6=O)C7=O)CC5)CC4)c(OC)c3)cn(C)c(=O)c2C1", "note": "(stereo not shown) [Compound D55]", "IC50": "< 10"},
      {"smiles": "CNC(=O)N1CCc2c(-c3cnc(CN4CCC(CCN5CCN(c6ccc7c(c6)C(=O)N(C6CCC(=O)NC6=O)C7=O)CC5)CC4)c(OC)c3)cn(C)c(=O)c2C1", "note": "(stereo not shown) [Compound D92]", "IC50": "10 to 100"},
      {"smiles": "COc1cc(-c2cn(C)c(=O)c3c2CCN(C(=O)NCCN2CCC(OC4CCN(c5ccc6c(c5)C(=O)N(C5CCC(=O)NC5=O)C6=O)CC4)CC2)C3)cc(OC)c1CN(C)C", "note": "(stereo not shown) [Compound D186]", "IC50": "10 to 100"},
      {"smiles": "COc1cc(-c2cn(C)c(=O)c3c2CCN(C(=O)NCC2COC4(CCN(c5ccc6c(c5)C(=O)N(C5CCC(=O)NC5=O)C6=O)CC4)C2)C3)cc(OC)c1CN(C)C", "note": "(stereo not shown) [Compound D121]", "IC50": "< 10"},
      {"smiles": "CNC(=O)N1Cc2c(c(-c3cc(OC)c(CN4CCN(CCC5CCN(c6ccc7c(c6)C(=O)N(C6CCC(=O)NC6=O)C7=O)CC5)CC4)c(OC)c3)cn(C)c2=O)CC1C", "note": "(stereo not shown) [Compound D41]", "IC50": "< 10"},
      {"smiles": "COc1cc(-c2cn(C)c(=O)c3c2CCN(C(=O)NCCN2CCC(C4CCN(c5ccc6c(c5)C(=O)N(C5CCC(=O)NC5=O)C6=O)CC4)C2)C3)cc(OC)c1CN(C)C", "note": "(stereo not shown) [Compound D205]", "IC50": "10 to 100"},
      {"smiles": "CNC(=O)N1CCc2c(-c3cc(OC)c(CN4CC(S(=O)(=O)NCCOc5cccc6c5C(=O)N(C5CCC(=O)NC5=O)C6=O)C4)c(OC)c3)cn(C)c(=O)c2C1", "note": "(stereo not shown) [Compound D282]", "IC50": "100 to 1000"},
      {"smiles": "CNC(=O)N1CCc2c(-c3cc(OC)c(CN4CCC(CCN(C)C5CCCN(c6ccc7c(c6)C(=O)N(C6CCC(=O)NC6=O)C7=O)C5)CC4)c(OC)c3)cn(C)c(=O)c2C1", "note": "(stereo not shown) [Compound D173]", "IC50": "< 10"},
      {"smiles": "CNC(=O)N1CCc2c(-c3cc(OC)c(CN4CCC(CCN5CCC6(CC5)CC(Oc5ccc7c(c5)C(=O)N(C5CCC(=O)NC5=O)C7=O)C6)CC4)c(OC)c3)cn(C)c(=O)c2C1", "note": "(stereo not shown) [Compound D251]", "IC50": "< 10"},
      {"smiles": "COc1cc(-c2cn(C)c(=O)c3c2CCN(C(=O)NC2CC4(CCN(CCCCN5CCN(c6ccc7c(c6)C(=O)N(C6CCC(=O)NC6=O)C7=O)CC5)CC4)CO2)C3)cc(OC)c1CN(C)C", "note": "(stereo not shown) [Compound D217]", "IC50": "≥ 1000"},
      {"smiles": "COc1cc(-c2cn(C)c(=O)c3c2CCN(C(=O)NCCOCCOCCNc2cccc4nc(C)n(C5CCC(=O)NC5=O)c(=O)c24)C3)cc(OC)c1CN(C)C", "note": "(stereo not shown) [Compound D292]", "IC50": "100 to 1000"},
      {"smiles": "COc1cc(-c2cn(C)c(=O)c3c2CCN(C(=O)NCCN2CCC4C2CN4c2ccc4c(c2)C(=O)N(C2CCC(=O)NC2=O)C4=O)C3)cc(OC)c1CN(C)C", "note": "(stereo not shown) [Compound D184]", "IC50": "10 to 100"},
      {"smiles": "CNC(=O)N1CCc2c(-c3cc(OC)c(CN4CCN(c5cnn(C6CCC(=O)NC6=O)c5)CC4)c(OC)c3)cn(C)c(=O)c2C1", "note": "(stereo not shown) [Compound D60]", "IC50": "100 to 1000"},
      {"smiles": "COc1cc(-c2cn(C)c(=O)c3c2CCN(C(=O)NC2CCC4(CCN(CCCN5CCN(c6ccc7c(c6)C(=O)N(C6CCC(=O)NC6=O)C7=O)CC5)C4)C2)C3)cc(OC)c1CN(C)C", "note": "(stereo not shown) [Compound D214]", "IC50": "100 to 1000"},
      {"smiles": "CNC(=O)N1CCc2c(-c3cc(OC)c(CN4CCC(CCN5CCN(c6ccc7c(c6)C(=O)N(C6CCC(=O)NC6=O)C7=O)CC5)C(F)(F)C4)c(OC)c3)cn(C)c(=O)c2C1", "note": "(stereo not shown) [Compound D155]", "IC50": "< 10"}
    ]},
    {"biological_target": "Nanoluciferase-BRD9 fusion protein (3×FLAG-NLuc-BRD9) in SYO-1 cells (Homo sapiens (Human), UniProt Q9H8M2)", "assay": "SYO1 BRD9 NanoLuc degradation assay", "format": "cell-based", "conditions": "SYO-1 cells, 6 hours, Table 6A", "outline": "as §1", "units": {"IC50": "nM"}, "values": [
      {"smiles": "CNC(=O)N1CCc2c(-c3cc(OC)c(CN4CCC5(CC4)CN(C(=O)CCCOc4cccc6c4C(=O)N(C4CCC(=O)NC4=O)C6=O)CCO5)c(OC)c3)cn(C)c(=O)c2C1", "note": "(stereo not shown) [Compound D3, 5-(4-[[4-(4-[[2-(2,6-dioxopiperidin-3-yl)-1,3-dioxoisoindol-4-yl]oxy]butanoyl)-1-oxa-4,9-diazaspiro[5.5]undecan-9-yl]methyl]-3,5-dimethoxyphenyl)-N,7-dimethyl-8-oxo-3,4-dihydro-1H-2,7-naphthyridine-2-carboxamide]", "IC50": "> 100"},
      {"smiles": "COc1cc(-c2cn(C)c(=O)c3c2CCN(C(=O)NCCCCCCCCNc2ccc4c(c2)C(=O)N(C2CCC(=O)NC2=O)C4=O)C3)cc(OC)c1CN(C)C", "note": "(stereo not shown) [Compound D9, 5-(4-((dimethylamino)methyl)-3,5-dimethoxyphenyl)-N-(8-((2-(2,6-dioxopiperidin-3-yl)-1,3-dioxoisoindolin-5-yl)amino)octyl)-7-methyl-8-oxo-3,4,7,8-tetrahydro-2,7-naphthyridine-2 (1H)-carboxamide formic acid]", "IC50": "< 10"}
    ]},
    {"biological_target": "Nanoluciferase-BRD9 fusion protein (3×FLAG-NLuc-BRD9) in SYO-1 cells (Homo sapiens (Human), UniProt Q9H8M2)", "assay": "SYO1 BRD9 NanoLuc degradation assay", "format": "cell-based", "conditions": "SYO-1 cells, 6 hours, Table 6C", "outline": "as §1", "units": {"IC50": "nM"}, "values": [
      {"smiles": "CNC(=O)N1CCc2c(-c3cc(OC)c(CN4CCC5(CN(c6ccc7c(c6)C(=O)N(C6CCC(=O)NC6=O)C7)C5)C(C)C4)c(OC)c3)cn(C)c(=O)c2C1", "note": "(stereo not shown) [Compound D304]", "IC50": "< 10"},
      {"smiles": "[2H]C([2H])([2H])NC(=O)N1CCc2c(-c3cc(OC)c(CN4[C@H](C)CN(CCC5CCN(c6ccc7c(c6)C(=O)N(C6CCC(=O)NC6=O)C7)CC5)C[C@H]4C)c(OC)c3)cn(C)c(=O)c2C1", "note": "(stereo partly shown) [Compound D323]", "IC50": "< 10"},
      {"smiles": "COc1cc(-c2cn(C)c(=O)c3c2N(C)CC3)cc(OC)c1CN1CC(CN2CCC3(CC2)CN(c2ccc4c(c2)C(=O)N(C2CCC(=O)NC2=O)C4)C3)C1", "note": "(stereo not shown) [Compound D352]", "IC50": "≥ 10"},
      {"smiles": "CNC(=O)N1CCc2c(-c3cc(OC)c(C4CN(c5ccc6c(c5)CN(C5CCC(=O)NC5=O)C6=O)C4)c(OC)c3)cn(C)c(=O)c2C1", "note": "(stereo not shown) [Compound D331]", "IC50": "≥ 10"}
    ]}
  ]
}
